Where two headings read alike, the source gives them in different places.

The source of these data is patent US20230414607A1, “METHODS OF TREATMENT” (BOW RIVER LLC, priority 2017, published 2023).

The conditions of data set [1]: cited from earlier work.
Data set [2] is described as follows: AUC and Cmax target safe levels of CYP3A4 substrate drugs (Table 1). The text has this:
In various embodiments, the “Target safe levels” are non-limiting examples of the upper limit of fold change or percent of baseline where in some embodiments the benefits of treating the patient for the condition or disease for which the CYP3A4 substrate drug is indicated outweigh the risks associated with the effects of a drug-drug interaction. […] For purposes of the present methods, the blood plasma levels measured during co-administration of the CYP3A4 substrate drug with […] may be used to estimate the posaconazole DDI decay curve, e.g., using equation 1.

The target in a further data set is CYP3A4 (Homo sapiens, UniProt P08684). The settings on record: cited from earlier work.
Setting [3] is: upper limit where benefits outweigh risks, approximation, can vary by about ±25%.
[4] abbreviates: co-administered with a strong CYP3A4 inhibitor (posaconazole, itraconazole, ritonavir, or ketoconazole).

Chain of CYP3A4 (P08684 whole entry): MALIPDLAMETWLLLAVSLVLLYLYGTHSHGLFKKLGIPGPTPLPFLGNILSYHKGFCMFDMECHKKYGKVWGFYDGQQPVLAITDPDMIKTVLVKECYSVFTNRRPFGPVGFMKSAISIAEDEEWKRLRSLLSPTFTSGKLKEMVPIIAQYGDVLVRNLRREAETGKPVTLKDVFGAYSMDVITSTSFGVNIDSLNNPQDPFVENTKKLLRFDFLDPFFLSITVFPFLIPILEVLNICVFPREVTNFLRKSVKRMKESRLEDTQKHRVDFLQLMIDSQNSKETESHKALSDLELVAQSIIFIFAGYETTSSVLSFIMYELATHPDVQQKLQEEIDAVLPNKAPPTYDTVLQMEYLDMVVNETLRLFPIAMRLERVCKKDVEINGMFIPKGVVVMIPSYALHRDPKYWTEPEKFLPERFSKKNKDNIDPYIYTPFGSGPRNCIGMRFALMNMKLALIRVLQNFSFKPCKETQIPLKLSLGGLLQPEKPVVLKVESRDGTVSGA

As to `CC[C@@H]1CN(C(=O)NCC(F)(F)F)C[C@@H]1c1cnc2cnc3[nH]ccc3n12` [upadacitinib], the “Baseline AUC (% CV)” value in data set [1] (AUCinf single dose at 3 mg) is 103 ± 27.6 ng·h/mL; in data set [1] (AUCinf single dose at 6 mg), 160 ± 37.6 ng·h/mL; in data set [1] (AUCinf single dose at 12 mg), 331 ± 49.8 ng·h/mL; in data set [1] (AUCinf single dose at 24 mg) it was 615 ± 78.1 ng·h/mL. Further, the “Baseline Cmax (% CV)” value in data set [1] (single dose at 6 mg) is 38.9 ± 9.96 ng/mL; in data set [1] (single dose at 12 mg), 82.9 ± 12.1 ng/mL.

Regarding `Cc1c(C(=O)Nc2ccc(N3C[C@@H](C)O[C@@H](C)C3)nc2)cccc1-c1ccc(OC(F)(F)F)cc1` [sonidegib], in data set [2] (human), the “Cmax target safe level, Percent of baseline” value is 0%. Also, on CYP3A4 (in vivo), the “AUC co-administration levels, Fold change” value was 2.2 fold; the “AUC co-administration levels, Percent of baseline” value is given as 220%; the “Cmax co-administration levels, Fold change” value is listed as 1.5 fold; the “Cmax co-administration levels, Percent of baseline” value is 150%.

Turning to `CCc1c2c(nc3ccc(OC(=O)N4CCC(N5CCCCC5)CC4)cc13)-c1cc3c(c(=O)n1C2)COC(=O)[C@]3(O)CC` [irinotecan], the “Baseline AUC (% CV)” value in data set [1] (single 90 min infusion of irinotecan 125 mg/m^2, AUC0-24) is listed as 10,200 ng*h/mL; in data set [1] (single 90 min infusion of irinotecan 340 mg/m^2, AUC0-24) it was 20,604 ng*h/mL. Besides, the “Baseline Cmax (% CV)” value was 1,660 ± 797 ng/ml in data set [1] (single 90 min infusion of irinotecan 125 mg/m^2) and 3,392 ± 874 ng/ml in data set [1] (single 90 min infusion of irinotecan 340 mg/m^2).

For the compound `CCc1cc(/C(C)=N/OCc2ccc(C3CCCCC3)c(C(F)(F)F)c2)ccc1CN1CC(C(=O)O)C1` [siponimod], in data set [2] (human), the “AUC target safe level, Fold change” value is reported as 10.4 fold and the “AUC target safe level, Percent of baseline” value is reported as 1040%. Further, at CYP3A4 (in vivo), the “AUC co-administration levels, Fold change” value is 2 fold and the “AUC co-administration levels, Percent of baseline” value is reported as 200%.

For the compound `O=C(Nc1cnn2ccc(N3CCC[C@@H]3c3cc(F)ccc3F)nc12)N1CC[C@H](O)C1` [larotrectinib], on CYP3A4 (in vivo), the “AUC co-administration levels, Fold change” value was 4.3 fold; the “AUC co-administration levels, Percent of baseline” value is given as 430%; the “Cmax co-administration levels, Fold change” value is 2.8 fold; the “Cmax co-administration levels, Percent of baseline” value is listed as 280%.

As for `CC(C)(C)c1nc(-c2cccc(NS(=O)(=O)c3c(F)cccc3F)c2F)c(-c2ccnc(N)n2)s1` [dabrafenib], at CYP3A4 (in vivo), the “AUC co-administration levels, Fold change” value was 1.71 fold and the “AUC co-administration levels, Percent of baseline” value was 171%.

Take `C=CCN1CC[C@]23c4c5ccc(O)c4O[C@H]2[C@@H](OCCOCCOCCOCCOCCOCCOCCOC)CC[C@@]3(O)[C@H]1C5` [naloxegol]: in data set [2] (setting [3]), the “AUC target safe level, Fold change” value is on record as 3.41 fold; the “AUC target safe level, Percent of baseline” value came to 341%; the “Cmax target safe level, Fold change” value is recorded as 2.86 fold; the “Cmax target safe level, Percent of baseline” value was 286%. On CYP3A4 (setting [4]), the “AUC co-administration levels, Fold change” value is given as 12.85 fold; the “AUC co-administration levels, Percent of baseline” value is 1285%; the “Cmax co-administration levels, Fold change” value was 9.58 fold; the “Cmax co-administration levels, Percent of baseline” value is 958%.

In the case of `O=c1[nH]c2ccccc2n1CCN1CCN(c2cccc(C(F)(F)F)c2)CC1` [flibanserin], on CYP3A4 (in vivo), the “AUC co-administration levels, Fold change” value is reported as 1.4 fold; the “AUC co-administration levels, Percent of baseline” value is 140%; the “Cmax co-administration levels, Fold change” value was 1.1 fold; the “Cmax co-administration levels, Percent of baseline” value is given as 110%.

On to `CO[C@H]1C(=O)[C@]2(C)[C@@H](OC)C[C@H]3OC[C@@]3(OC(C)=O)[C@H]2[C@H](OC(=O)c2ccccc2)[C@]2(O)C[C@H](OC(=O)[C@H](O)[C@@H](NC(=O)OC(C)(C)C)c3ccccc3)C(C)=C1C2(C)C` [cabazitaxel], for which, on CYP3A4 (in vivo), the “AUC co-administration levels, Fold change” value is 1.25 fold and the “AUC co-administration levels, Percent of baseline” value is reported as 125%.

`COc1cc(N2CCC(N3CCN(C)CC3)CC2)ccc1Nc1ncc(Cl)c(Nc2ccccc2P(C)(C)=O)n1` [brigatinib]: on CYP3A4 (in vivo), the “AUC co-administration levels, Fold change” value is reported as 2.01 fold; the “AUC co-administration levels, Percent of baseline” value was 201%; the “Cmax co-administration levels, Fold change” value is 1.21 fold; the “Cmax co-administration levels, Percent of baseline” value is given as 121%.

On to `C[C@H]1Oc2cc(cnc2N)-c2c(nn(C)c2C#N)CN(C)C(=O)c2ccc(F)cc21` [lorlatinib], for which, at CYP3A4 (in vivo), the “AUC co-administration levels, Fold change” value is recorded as 1.42 fold; the “AUC co-administration levels, Percent of baseline” value is 142%; the “Cmax co-administration levels, Fold change” value was 1.24 fold; the “Cmax co-administration levels, Percent of baseline” value is 124%.

Turning to `N#Cc1ccnc(N2C(=O)CC[C@H]2C(=O)N(c2cncc(F)c2)[C@H](C(=O)NC2CC(F)(F)C2)c2ccccc2Cl)c1` [ivosidenib], in data set [2] (human), the “AUC target safe level, Fold change” value was found to be 1.73 fold; the “AUC target safe level, Percent of baseline” value turned out to be 173%; the “Cmax target safe level, Fold change” value was 1.52 fold; the “Cmax target safe level, Percent of baseline” value is 152%. Further, at CYP3A4 (in vivo), the “AUC co-administration levels, Fold change” value is reported as 2.69 fold and the “AUC co-administration levels, Percent of baseline” value was 269%.

`CC#CC(=O)N1CCC[C@H]1c1nc(-c2ccc(C(=O)Nc3ccccn3)cc2)c2c(N)nccn12` [acalabrutinib]: in data set [2] (human), the “AUC target safe level, Fold change” value is 2.0 fold; the “AUC target safe level, Percent of baseline” value was 200%; the “Cmax target safe level, Fold change” value came to 2.0 fold; the “Cmax target safe level, Percent of baseline” value was determined as 200%. Further, on CYP3A4 (in vivo), the “AUC co-administration levels, Fold change” value is reported as 5.1 fold; the “AUC co-administration levels, Percent of baseline” value is on record as 510%; the “Cmax co-administration levels, Fold change” value is on record as 3.9 fold; the “Cmax co-administration levels, Percent of baseline” value was 390%.

Turning to `CC1(C)CCC(CN2CCN(c3ccc(C(=O)NS(=O)(=O)c4ccc(NCC5CCOCC5)c([N+](=O)[O-])c4)c(Oc4cnc5[nH]ccc5c4)c3)CC2)=C(c2ccc(Cl)cc2)C1` [venetoclax], at CYP3A4 (in vivo), the “AUC co-administration levels, Fold change” value is reported as 1.78 fold; the “AUC co-administration levels, Percent of baseline” value was 178%; the “Cmax co-administration levels, Fold change” value is reported as 1.06 fold; the “Cmax co-administration levels, Percent of baseline” value is reported as 106%.

`O=C(NC[C@H]1CN(c2ccc(N3CCOCC3=O)cc2)C(=O)O1)c1ccc(Cl)s1` [rivaroxaban]: in data set [2] (human), the “AUC target safe level, Fold change” value stood at 1.52 fold; the “AUC target safe level, Percent of baseline” value is on record as 152%; the “Cmax target safe level, Percent of baseline” value came out at 0%. Further, at CYP3A4 (in vivo), the “AUC co-administration levels, Fold change” value is listed as 1.76 fold; the “AUC co-administration levels, Percent of baseline” value is reported as 176%; the “Cmax co-administration levels, Fold change” value is listed as 1.56 fold; the “Cmax co-administration levels, Percent of baseline” value is 156%.

Consider `CCC(=O)O[C@]1(C(=O)SCF)[C@H](C)C[C@H]2[C@@H]3C[C@H](F)C4=CC(=O)C=C[C@]4(C)[C@@]3(F)[C@@H](O)C[C@@]21C` [fluticasone propionate], for which, at CYP3A4 (setting [4]), the “AUC co-administration levels, Fold change” value is 1.9; fold and the “AUC co-administration levels, Percent of baseline” value is on record as 190%;.

As for `COC(=O)N[C@H](C(=O)N1CCC[C@H]1c1nc(-c2ccc3c(c2)O[C@@H](c2ccccc2)n2c-3cc3cc(-c4c[nH]c([C@@H]5CCCN5C(=O)[C@@H](NC(=O)OC)C(C)C)n4)ccc32)c[nH]1)C(C)C` [elbasvir], on CYP3A4 (in vivo), the “AUC co-administration levels, Fold change” value is “EBR: 1.8; fold”; the “AUC co-administration levels, Percent of baseline” value is given as 180%;; the “Cmax co-administration levels, Fold change” value is 1.29; fold; the “Cmax co-administration levels, Percent of baseline” value is 129%;.

Turning to `COc1cc(Nc2c(C#N)cnc3cc(OCCCN4CCN(C)CC4)c(OC)cc23)c(Cl)cc1Cl` [bosutinib], at CYP3A4 (in vivo), the “AUC co-administration levels, Fold change” value is given as 2 fold; the “AUC co-administration levels, Percent of baseline” value is 200%; the “Cmax co-administration levels, Fold change” value was 1.5 fold; the “Cmax co-administration levels, Percent of baseline” value is 150%.

With `CCN1CCN(Cc2ccc(Nc3ncc(F)c(-c4cc(F)c5nc(C)n(C(C)C)c5c4)n3)nc2)CC1` [abemaciclib], in data set [2] (human), the “AUC target safe level, Fold change” value came to 1.3 fold and the “AUC target safe level, Percent of baseline” value is 130%. On CYP3A4 (in vivo), the “AUC co-administration levels, Fold change” value is given as 16 fold and the “AUC co-administration levels, Percent of baseline” value is 1600%.

On to `COc1cc2c(cc1OC)CC(=O)N(CCCN(C)C[C@H]1Cc3cc(OC)c(OC)cc31)CC2` [ivabradine], for which, in data set [2] (human), the “AUC target safe level, Fold change” value is given as 2.1 fold; the “AUC target safe level, Percent of baseline” value is listed as 210%; the “Cmax target safe level, Fold change” value is on record as 1.6 fold; the “Cmax target safe level, Percent of baseline” value is given as 160%. Also, on CYP3A4 (in vivo), the “AUC co-administration levels, Fold change” value was 7 fold; the “AUC co-administration levels, Percent of baseline” value is listed as 700%; the “Cmax co-administration levels, Fold change” value is on record as 3.25 fold; the “Cmax co-administration levels, Percent of baseline” value is 325%.

On to `CNC(=O)c1cc(Oc2ccc(NC(=O)Nc3ccc(Cl)c(C(F)(F)F)c3)c(F)c2)ccn1` [regorafenib], for which, on CYP3A4 (in vivo), the “AUC co-administration levels, Fold change” value is given as 1.33 fold and the “AUC co-administration levels, Percent of baseline” value was 133%.

Take `O=C(c1cc(Cc2n[nH]c(=O)c3ccccc23)ccc1F)N1CCN(C(=O)C2CC2)CC1` [olaparib]: at CYP3A4 (in vivo), the “AUC co-administration levels, Fold change” value is on record as 2.2 fold; the “AUC co-administration levels, Percent of baseline” value is recorded as 220%; the “Cmax co-administration levels, Fold change” value was 1.1 fold; the “Cmax co-administration levels, Percent of baseline” value is reported as 110%.
